# Results: the NIST ThermoML archive (doi:10.1021/acs.jced.9b00068)
# Numbers after ± are expanded uncertainties.
# How the values were obtained:
# [1] = Liquid; for mass density: 298.15 K, 101.33 kPa, Vibrating tube method; for vapor or sublimation pressure: Ebulliometric method (Recirculating still)
# [2] = refractive index (Na D-line) (dimensionless); details: 298.15 K; 101.33 kPa; Liquid; Standard Abbe refractometry
mass density [1],vapor or sublimation pressure ([1]; 337.5 K),refractive index [2],vapor or sublimation pressure ([1]; 399.6 K),vapor or sublimation pressure ([1]; 362.5 K),vapor or sublimation pressure ([1]; 421.6 K),vapor or sublimation pressure ([1]; 373.8 K),vapor or sublimation pressure ([1]; 330.2 K),SMILES
787.7 ± 0.2 kg/m3,100.17 ± 2 kPa,1.3275 ± 0.0004,,,,,,CO [methanol]
969.4 ± 0.2 kg/m3,,1.3821 ± 0.0004,100.17 ± 2 kPa,,,,,CCOC(=O)OCC [diethyl carbonate]
1062.7 ± 0.2 kg/m3,,1.3664 ± 0.0004,,100.17 ± 2 kPa,,,,COC(=O)OC [dimethyl carbonate]
872.3 ± 0.2 kg/m3,,1.3999 ± 0.0004,,,100.17 ± 2 kPa,,,CCCCCOC(C)=O [pentyl ethanoate]
882.9 ± 0.2 kg/m3,,1.3815 ± 0.0004,,,,100.17 ± 2 kPa,,CCCOC(C)=O [propyl ethanoate]
927.4 ± 0.2 kg/m3,,1.3587 ± 0.0004,,,,,100.17 ± 2 kPa,COC(C)=O [methyl ethanoate]
